According to ChEMBL document CHEMBL1151028, “Synthesis of -hydroxy statine through a facially selective osmylation of a chiral -amido crotonate” (Bioorg Med Chem Lett, 1995):
Where a SMILES comes first, the peptide text is derived from it. [ ]: non-standard residue; d: D form. The star is where a group is joined. Sta = CC(C)C[C@H](N)[C@@H](O)CC(=O)O; Boc = CC(C)(C)OC(=O)*; GABA = NCCCC(=O)O

Biological target: T1, Renin (Homo sapiens, UniProt P00797)
T1 sequence (P00797 whole entry): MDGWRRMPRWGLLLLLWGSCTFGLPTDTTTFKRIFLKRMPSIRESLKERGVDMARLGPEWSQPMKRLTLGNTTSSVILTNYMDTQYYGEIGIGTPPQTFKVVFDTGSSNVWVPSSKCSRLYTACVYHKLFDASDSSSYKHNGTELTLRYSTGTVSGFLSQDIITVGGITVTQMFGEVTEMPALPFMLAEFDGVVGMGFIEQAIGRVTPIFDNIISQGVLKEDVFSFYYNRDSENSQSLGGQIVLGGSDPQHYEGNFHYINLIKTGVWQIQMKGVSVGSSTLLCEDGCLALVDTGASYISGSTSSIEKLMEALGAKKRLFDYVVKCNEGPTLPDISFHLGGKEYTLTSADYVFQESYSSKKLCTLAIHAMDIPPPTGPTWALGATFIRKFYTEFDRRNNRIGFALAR
Experiment: Inhibitory activity against renin was determined

An IC50 of 3 µM was found for `CC(C)C[C@H](NC(=O)[C@H](Cc1c[nH]cn1)NC(=O)[C@H](Cc1ccccc1)NC(=O)OC(C)(C)C)[C@@H](O)[C@H](O)C(=O)NCCCC(=O)O` in this work.

An IC50 of 3.2 µM was found for `CC(C)C[C@H](NC(=O)[C@H](Cc1cnc[nH]1)NC(=O)[C@H](Cc1ccccc1)NC(=O)OC(C)(C)C)[C@@H](O)CC(=O)NCCCC(=O)O` (Boc-FH[Sta][GABA]-OH) in this work.

An IC50 of 63 µM was found for `CC(C)C[C@H](NC(=O)[C@H](Cc1cnc[nH]1)NC(=O)[C@H](Cc1ccccc1)NC(=O)OC(C)(C)C)[C@H](O)[C@@H](O)C(=O)NCCCC(=O)O` in this work.
